Reference: publication doi:10.1101/2024.05.17.594634, “Protein Structure Inspired Drug Discovery” (bioRxiv, 2024)
Each block holds one compound with its values, some of them ahead of it.

Columns and labels:
[1] = system: human CD34+ stem cells; assay: Bone marrow stem cell (hematopoietic) colony formation assay; format: cell-based; details: for mean number of colonies, % of control, 14 day / mean number of colonies, % of control, 8 day: 40 μM compound, mean N=2; for mean number of colonies, % of control, 14 day: 14 days; for mean number of colonies, % of control, 8 day: total colonies at 8 days
Method: In parallel with measuring growth inhibition of cancer cell growth, we measured effect on human hematopoietic stem cells. Hematopoietic stem cells reside in the bone marrow and are the source of mature cells present in blood.[66] Bone marrow is one of the most sensitive organs in the body to drug toxicity, especially so for anticancer drugs where it can approach 100%.[67–69] Bone marrow toxicity was measured by performing hematopoietic colony formation assays on human CD34+ stem cells. The stem cell nature of this assay permitted assessment of trilineage colony formation: granulocytic (white blood cells), erythrocytic (red blood cells) and megakaryocytic (platelets), measured by the formation of CFU-GM (colony-forming-granulocyte-macrophage), BFU-E (erythroid burst-forming unites) and CFU-GEMM (colony-forming unit-granulocyte, erythrocyte, monocyte, megakaryocyte) colonies, respectively. Two measurements were taken. Total colonies at eight days were measured, thereby matching the eight-day time frame of cancer cell colony formation assays. At fourteen days, individual colonies have differentiated, permitting quantification of each lineage. Human hematopoietic stem cell trilineage colony formation assays were performed as previously described by us.[65] Briefly, human cord blood CD34+ cells (catalog #: 70008.5) were purchased from StemCell Technology Inc., and seeded at 1 × 10^4 cells per 35 mm dish. Cells were cultured in MethoCult™ Express (StemCell Technologies, Inc.) semisolid media, per manufacturer’s instructions, in the presence of compound or vehicle control. At eight days colonies, i.e., groups of ≥ 10 cells, were counted. At fourteen days, individual colonies of BFU-E, CFU-GM and CFU-GEMM were identified based on manufacturers’ morphologic characterization criteria. Assays were run in replicates of N = 2; some were run in replicates of N = 3, as denoted.

[2] = system: HT29 colon cancer cells; assay: Eight-day colony formation assay, HT29; format: cell-based, human
Method: (§1) We sought to identify compounds that would inhibit the growth of cancer cells, but that also did so selectively. Inhibition of cancer cell growth is a highly sought after attribute of anticancer agents. This was assessed by measuring the ability of a compound to inhibit cell growth in eight-day colony formation assays, examining concentrations ranging from 0.017 to 40 μM. Breast, colon, lung and prostate cancer are four of the most common causes of cancer in the United States, are major causes of cancer cell death, and were examined.[64] Two cell lines for each cancer type were assessed: A549 (adenocarcinoma) and H226 (squamous carcinoma) for lung, MCF-7 (estrogen receptor [ER] positive) and MDA-MB-231 (ER negative) for breast, LNCaP (androgen receptor [AR] positive) and PC3-M (AR negative) for prostate, and HCT116 (wild type p53, mutated KRAS) and HT29 (p53 mutant) for colon.[65]
(§2) In considering effect on cancer cells, for each compound and each cell line tested we calculated the efficacy ratio, i.e., efficacy ratio = (percent of remaining cancer cell colonies)/(percent of remaining bone marrow colonies), at 8 days after treatment with 40 μM compound (S4 Fig). We considered those with an efficacy ratio below 0.5 as active and at least partially selective. The stringency of this is highlighted by considering the effect of 5FU on colon cancer, where it is frequently used clinically in proven curative settings, as well as proven life prolonging settings.[70, 71] […] Even at 5.7 μM, where 5FU is toxic to bone marrow, with hematopoietic colony formation at 38% of control, the efficacy ratio for HT29 cells has only dropped to 0.52. […] It can be seen that compounds segregate to protein sites. Specifically, of 10 compounds meeting this activity criteria (i.e., efficacy ratio <0.5), 3 were directed at the Dxr2 site, 3 at FolC2, 2 at FolC1, 1 at Dxr1 and 1 at TYLT.
(§3) Eight-day colony formation assays of cancer cells were performed as described by us.[87] Briefly, 0.5–1.0 × 10^3 cells were seeded into a 12 well plate, after 24 hours compound added and eight days later colonies (of 3 or more cells) were scored after trypan blue staining. Conditions were in replicates of N = 2. All compounds were stored under desiccated conditions in a sealed container at minus 20°C upon arrival. One day prior to use, they were placed into DMSO, stored at […] as stock solutions, thawed just prior to use, and not reused.

[3] = system: LNCaP prostate cancer cells; assay: Eight-day colony formation assay, LNCaP; format: cell-based, human
Method: as §1, §2, §3

[4] = system: HT29, MDA-MB-231 and H226; assay: NCI-60 cell line screen, other cell lines; format: cell-based, human; details: 10 μM X 48 hours
Method: Above findings support the importance of Dxr2 and FolC2 sites, and of Dxr2-017 and FolC2-001 compounds, respectively. The predicted poses of Dxr2-017 bound to the Dxr2 site and FolC2-001 bound to the FolC2 site are shown (Fig 7). The NCI-60 cell line screen evaluates compound growth inhibition and cell toxicity in a highly standardized manner across 60 different cell lines. Dxr2-017 and FolC2-001 were evaluated in this assay (S5 Fig). NCI-60 screens evaluate compounds at 10 μM X 48 hours. […] Of high interest, in the NCI-60 screen Dxr2-017 had relatively high activity against melanoma cell lines, inducing cell death in 5 cell lines ranging from 25–65%, and inhibiting growth in 4 cell lines ranging from 76–96%. Its impact on cell death represents the most striking relative difference in response across cell lines.

[5] = system: human breast, prostate, colon and lung cancer cells; assay: Eight-day colony formation assays, summary across the cancer cell line panel; format: cell-based
Method: as §1, §2, §3

[6] = system: H226 lung cancer cells; assay: Eight-day colony formation assay, H226; format: cell-based, human
Method: as §1, §2, §3

[7] = system: MDA-MB-231 breast cancer cells; assay: Eight-day colony formation assay, MDA-MB-231; format: cell-based, human; details: MDAMB231
Method: as §1, §2, §3

[8] = system: PC3-M prostate cancer cells; assay: Eight-day colony formation assay, PC3-M; format: cell-based, human
Method: as §1, §2, §3

[9] = system: A549 lung cancer cells; assay: Eight-day colony formation assay, A549; format: cell-based, human
Method: as §1, §2, §3

[10] = system: MCF-7 breast cancer cells; assay: Eight-day colony formation assay, MCF-7; format: cell-based, human
Method: as §1, §2, §3

[11] = system: HT116 colon cancer cells; assay: Eight-day colony formation assay, HT116; format: cell-based, human
Method: as §1, §2, §3

- effect on bone marrow ([1]; 0.82 μM): no effect
- effect on bone marrow colony formation ([1]; 5.7 μM): profound suppressive effects
- hematopoietic colony formation, % of control ([1]; 5.7 μM): 38 % of control
- effect on bone marrow colony formation ([1]; 40 μM): completely suppresses colony formation
Compound: O=c1[nH]cc(F)c(=O)[nH]1 [5FU, 5-fluorouracil, reference compound]
- efficacy ratio ([2]; 0.82 μM): 0.82
- efficacy ratio (cancer cell colonies to bone marrow colonies at 8 days) ([2]; 5.7 μM): 0.52

- mean number of colonies, % of control, 14 day [1]: 93 % of control
- mean number of colonies, % of control, 8 day [1]: 109 % of control
Compound: Cc1nnsc1C(=O)OCCCn1c(=O)[nH]c2ccccc21 [Dxr2-001]

- mean number of colonies, % of control, 14 day [1]: 85 % of control
- mean number of colonies, % of control, 8 day [1]: 80 % of control
Compound: c1ccc(CCc2n[nH]c(-c3ccccn3)n2)cc1 [FolC1-031]

- mean number of colonies, % of control, 14 day [1]: 87 % of control
- mean number of colonies, % of control, 8 day [1]: 108 % of control
Compound: O=C(Cn1c(=O)oc2ccccc21)N1CCn2c1nc1ccccc12 [FolC2-001]
- efficacy ratio (cancer cell colonies to bone marrow colonies at 8 days) ([3]; 5.7 μM): 0.82
- efficacy ratio (cancer cell colonies to bone marrow colonies at 8 days) ([3]; 40 μM): 0.34
- activity in NCI-60 screen [4]: against H226
- number of cell lines exhibiting an efficacy ratio below 0.5 ([5]; 40 μM): 5 cell lines
- relative activity for a given compound, % (% of cells tested where ratio is <0.5) ([5]; 40 μM): 63%
- fold higher mean efficacy ratio than that of Dxr2-017 ([5]; 40 μM, cells with ratio below 0.5, P = 0.001): 9.7 fold
- mean efficacy ratio for cells/compounds where the efficacy ratio is below 0.5 ([5]; 40 μM, mean ± SEM): 0.29 ± 0.09
- efficacy at concentrations below 40 μM [5]: some degree of efficacy observed
- efficacy ratio (cancer cell colonies to bone marrow colonies at 8 days) ([6]; 5.7 μM): 0.56
- efficacy ratio (cancer cell colonies to bone marrow colonies at 8 days) ([6]; 40 μM): 0.00
- efficacy ratio (cancer cell colonies to bone marrow colonies at 8 days) ([7]; 5.7 μM): 0.81
- efficacy ratio (cancer cell colonies to bone marrow colonies at 8 days) ([7]; 40 μM): 0.28
- efficacy ratio (cancer cell colonies to bone marrow colonies at 8 days) ([8]; 5.7 μM): 0.96
- efficacy ratio (cancer cell colonies to bone marrow colonies at 8 days) ([8]; 40 μM): 0.41
- efficacy ratio (cancer cell colonies to bone marrow colonies at 8 days) ([2]; 5.7 μM): 1.13
- efficacy ratio (cancer cell colonies to bone marrow colonies at 8 days) ([2]; 40 μM): 0.79
- efficacy ratio (cancer cell colonies to bone marrow colonies at 8 days) ([9]; 5.7 μM): 0.99
- efficacy ratio (cancer cell colonies to bone marrow colonies at 8 days) ([9]; 40 μM): 0.53
- efficacy ratio (cancer cell colonies to bone marrow colonies at 8 days) ([10]; 5.7 μM): 0.65
- efficacy ratio (cancer cell colonies to bone marrow colonies at 8 days) ([10]; 40 μM): 0.43
- efficacy ratio (cancer cell colonies to bone marrow colonies at 8 days) ([11]; 5.7 μM): 0.85
- efficacy ratio (cancer cell colonies to bone marrow colonies at 8 days) ([11]; 40 μM): 0.60

- mean number of colonies, % of control, 14 day [1]: 101 % of control
- mean number of colonies, % of control, 8 day [1]: 105 % of control
Compound: O=C(CCc1c[nH]c2ccccc12)N1CCSc2ccccc21 [FolC2-005]
- efficacy ratio (cancer cell colonies to bone marrow colonies at 8 days) ([3]; 40 μM): 0.28
- relative activity for a given compound, % (% of cells tested where ratio is <0.5) ([5]; 40 μM): 63%
- efficacy at concentrations below 40 μM [5]: A similar phenomenon is observed
- efficacy ratio (cancer cell colonies to bone marrow colonies at 8 days) ([6]; 40 μM): 0.11
- efficacy ratio (cancer cell colonies to bone marrow colonies at 8 days) ([7]; 40 μM): 0.78
- efficacy ratio (cancer cell colonies to bone marrow colonies at 8 days) ([8]; 40 μM): 0.00
- efficacy ratio (cancer cell colonies to bone marrow colonies at 8 days) ([2]; 40 μM): 0.06
- efficacy ratio (cancer cell colonies to bone marrow colonies at 8 days) ([9]; 40 μM): 0.69
- efficacy ratio (cancer cell colonies to bone marrow colonies at 8 days) ([10]; 40 μM): 0.33
- efficacy ratio (cancer cell colonies to bone marrow colonies at 8 days) ([11]; 40 μM): 0.70

- mean number of colonies, % of control, 14 day [1]: 119 % of control
- mean number of colonies, % of control, 8 day [1]: 93 % of control
Compound: O=C(Nc1nnn[nH]1)c1cc(-c2ccccc2)nc2ccccc12 [PRT-051]

- mean number of colonies, % of control, 14 day [1]: 103 % of control
- mean number of colonies, % of control, 8 day [1]: 117 % of control
Compound: O=C(Cc1n[nH]c(=O)c2ccccc12)Nn1cnc2ccccc21 [TYLT-001]

- mean number of colonies, % of control, 14 day [1]: 94 % of control
- mean number of colonies, % of control, 8 day [1]: 97 % of control
Compound: O=C(COC(=O)c1cccs1)c1ccc2[nH]c(=O)[nH]c2c1 [TYLT-003]
